Assay results reported in paper PMC4681097 (Chemistry & biology, 2011).

Target: PHD2_181-426 (Homo sapiens, UniProt Q9GZT9)
Experiment: Photo cross-linking of purified PHD2 analysed by MALDI-MS
Type: binding

Sequence of PHD2_181-426 (Q9GZT9 181-426): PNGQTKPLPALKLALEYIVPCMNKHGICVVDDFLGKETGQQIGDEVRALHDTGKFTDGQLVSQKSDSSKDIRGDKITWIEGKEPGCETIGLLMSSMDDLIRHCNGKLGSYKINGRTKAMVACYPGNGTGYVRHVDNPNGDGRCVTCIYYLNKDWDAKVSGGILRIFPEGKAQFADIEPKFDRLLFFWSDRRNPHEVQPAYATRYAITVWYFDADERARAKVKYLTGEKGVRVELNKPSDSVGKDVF

`O=C(O)CNC(=O)c1nc(Cl)c2ccccc2c1O` [[(1-chloro-4-hydroxyisoquinoline-3-carbonyl)-amino]-acetic acid] was tested, and the “extent of cross-linking of PHD2 by DR025 in competition experiment” value was “substantially reduced”.
